For ten compounds, IC50 and inhibition results are on record in patent US9012431B2, “Boron-containing small molecules as anti-inflammatory agents” (Anacor Pharmaceuticals, Inc., priority 2008, dated 2015).

One experiment deals with IL-10. Description: Cytokine assay, IL-10 release from PBMC. Format: cell-based. To be noted: human PBMC, 20 ug/mL PHA; for IC50: supernatant at 48 hours; for inhibition at 10 µM: 48 hours. The procedure: (§1) The ability of the compounds described herein to inhibit pro-inflammatory cytokines or phsophodiesterases were tested.
(§2) Frozen human peripheral blood mononucleocytes (PBMC) were thawed and centrifuged. Cryopreservation media was aspirated off of the cell pellet, and the cells were resuspended in fresh culture media (CM) comprising RPMI 1640 and 10% FBS in 96 well plates. Test article was dissolved in DMSO to form a 10 mM sample (DMSO, 100%). The 10 mM samples were diluted to 100 μM in CM (DMSO, 1%), then further diluted to 10, 1, 0.1, 0.01 μM in 200 μL of CM (n=3). […] IL-23 was assayed using a commercial ELISA kit (R&D Systems).

Another experiment concerns IL-5. Description: Cytokine assay, IL-5 release from PBMC. Particulars: human PBMC, 20 ug/mL PHA; for IC50: supernatant at 48 hours; for inhibition at 10 µM: 48 hours. It counts as cell-based. The procedure:
as §1, §2

Experiment [1] deals with T1, PDE4 partially purified from human U-937 myeloid leukemia cells.
T1 construct: PDE4 partially purified from human U-937 myeloid leukemia cells was used
Description: PDE4 Assay (enzyme from U-937 cells, [3H]cAMP). To be noted: PDE4 from U-937 cells, Tris buffer pH 7.5, 20 minutes at 25° C. It counts as biochemical. The procedure:
Test article and/or vehicle was incubated with 0.2 mg enzyme and 1 mM cAMP containing 0.01 mM [3H]cAMP in Tris buffer pH 7.5 for 20 minutes at 25° C. The reaction was terminated by boiling for 2 minutes and the resulting AMP is converted to adenosine by addition of 10 mg/ml snake venom nucleotidase and further incubation at 37° C. for 10 minutes. Unhydrolyzed cAMP is bound to AG1-X2 resin, and remaining [3H]Adenosine in the aqueous phase is quantitated by scintillation counting.

A further experiment relates to TNF-α. Description: Cytokine assay, TNF-α release from PBMC. It counts as cell-based. To be noted: 1 μg/mL LPS; for IC50: supernatant at 24 hours. The procedure: as §1, §2
The subject of the next experiment is IFN-γ. Description: Cytokine assay, IFN-γ release from PBMC. It counts as cell-based. Particulars: human PBMC, 20 ug/mL PHA; for IC50: supernatant at 24 hours; for inhibition at 10 µM: 24 hours. The procedure:
as §1, §2

In a further experiment the test system is IL-2. Kind of experiment: Cytokine assay, IL-2 release from PBMC. It counts as cell-based. To be noted: human PBMC, 20 ug/mL PHA; for IC50: supernatant at 24 hours; for inhibition at 10 µM: 24 hours. The procedure:
as §1, §2

Where a name gives a salt, the structure may show the parent alone.

For `N#Cc1ccc(Oc2ccc3c(c2)B(O)OC3)cc1` [C18, 6-(4-Cyanophenoxy)-1,3-dihydro-1-hydroxy-2,1-benzoxaborole], the concentration for half-maximal inhibition (IC50) (commonly the midpoint of a concentration-inhibition curve) in the experiment with IL-10 is above 10 µM; in the experiment on IL-5, above 10 µM; in experiment [1], above 10 µM; with TNF-α (Homo sapiens, PBMC, 24 h), above 10 µM; with IFN-γ it was above 10 µM; in the experiment on IL-2 it was above 10 µM.

As for `COc1ccc(Oc2ccc3c(c2)B(O)OC3)cc1` [C31, 6-(4-Methoxyphenoxy)-1,3-dihydro-1-hydroxy-2,1-benzoxaborole], the half-maximal inhibitory concentration (IC50) in the experiment with IL-10 is above 10 µM; in the experiment with IL-5, above 10 µM; in experiment [1], 4 to 10 µM; in the experiment with TNF-α (Homo sapiens, PBMC, 24 h), above 10 µM; with IL-2 it was above 10 µM. Also, the inhibition (as a rule, how much of the control response was suppressed) at 10 µM in the experiment on IFN-γ was 30 to 60%.

For `O=C(O)c1ccc(Oc2ccc3c(c2)COB3O)cc1` [C38, 4-(1-hydroxy-1,3-dihydro-benzo[c][1,2]oxaborol-5-yloxy)-benzoic acid], the half-maximal inhibitory concentration (IC50) with IL-10 is above 10 µM; in the experiment on IL-5, above 10 µM; in experiment [1], 4 to 10 µM; with TNF-α (Homo sapiens, PBMC, 24 h), above 10 µM; in the experiment on IFN-γ it was above 10 µM; in the experiment on IL-2 it was above 10 µM.

Consider `N#Cc1ccc(COc2ccc3c(c2)COB3O)cc1` [D1, 5-(4-Cyanobenzyloxy)-1,3-dihydro-1-hydroxy-2,1-benzoxaborole], for which the IC50 with IL-10 is above 10 µM; with IL-5, 1 to 4 µM; in experiment [1], 1 to 4 µM; in the experiment on TNF-α (Homo sapiens, PBMC, 24 h) it was 4 to 10 µM; with IFN-γ, 1 to 4 µM; in the experiment on IL-2 it was 1 to 4 µM.

On to `NCc1ccc(Oc2ccc3c(c2)COB3O)cc1` [D59, (4-(1-Hydroxy-1,3-dihydrobenzo[c][1,2]oxaborol-5-yloxy)phenyl) methanaminium chloride], for which the inhibition at 10 µM is below 30% with IL-10; 30 to 60% in the experiment with IL-5; 30 to 60% in the experiment with TNF-α (human PBMC, 24 hours, 10 μM); 60 to 90% with IL-2. Also, the IC50 in experiment [1] is above 10 µM.

Turning to `NCc1ccc(Oc2ccc3c(c2)COB3O)nc1NCCO` [D117], the IC50 with IL-10 is above 10 µM; with IL-5 it was 1 to 4 µM; with TNF-α (Homo sapiens, PBMC, 24 h), 1 to 4 µM; in the experiment on IFN-γ, above 10 µM; in the experiment with IL-2 it was 1 to 4 µM.

As to `N#Cc1ccc(Oc2ccc3c(c2)COB3O)nc1NCc1ccccc1` [D121, 2-Benzylamino-6-(1-hydroxy-1,3-dihydro-benzo[c][1,2]oxaborol-5-yloxy)-nicotinonitrile], the IC50 with IL-10 was 1 to 4 µM; in the experiment with IL-5, below 1 µM; in the experiment on TNF-α (Homo sapiens, PBMC, 24 h), below 1 µM; with IFN-γ, below 1 µM; with IL-2, below 1 µM.

`N#Cc1ccc(Oc2ccc3c(c2)COB3O)nc1NCCO` [D132, 6-(1-hydroxy-1,3-dihydro-benzo[c][1,2]oxaborol-5-yloxy)-2-(2-hydroxy-ethylamino)-nicotinonitrile]: the 50% inhibitory concentration (IC50) with IL-10 is below 1 µM; with IL-5, below 1 µM; in the experiment with TNF-α (Homo sapiens, PBMC, 24 h), below 1 µM; in the experiment with IFN-γ, below 1 µM; in the experiment on IL-2, below 1 µM.

Take `N#Cc1cc(CNC=O)ccc1Oc1ccc2c(c1)COB2O` [D137, 5-[2-Cyano-4-(formylaminomethyl)phenoxy]-1,3-dihydro-1-hydroxy-2,1-benzoxaborole]: the inhibition at 10 µM was 30 to 60% in the experiment on IL-10, 30 to 60% in the experiment on IL-5, 60 to 90% with IFN-γ and 60 to 90% in the experiment with IL-2. In addition, the IC50 in the experiment with TNF-α (Homo sapiens, PBMC, 24 h) lay in the range of 1 to 4 µM.

Regarding `N#Cc1ccc(Oc2ccc3c(c2)COB3O)c(CN)c1` [D138, 5-(2-Aminomethyl-4-cyanophenoxy)-1,3-dihydro-1-hydroxy-2,1-benzoxaborole hydrochloride], the inhibition at 10 µM in the experiment with IL-10 lay in the range of 30 to 60%; with IL-5, 60 to 90%; in the experiment with IFN-γ, 30 to 60%; in the experiment with IL-2, 60 to 90%. In the experiment with TNF-α (human PBMC, hydrochloride), this compound had an IC50 of 1 to 4 µM.
